Measurements taken from PMC4558462, “A new small molecule inhibitor of soluble guanylate cyclase” (Bioorganic & Medicinal Chemistry, 2015).
Entries after “also recorded” stand apart in the source; their conditions may differ. Read-outs that look alike come from different tables or passages of the source.

Legend:
sGCcat = molecular target: T1, sGCcat (Homo sapiens, UniProt Q02108+Q02153); experiment: SPR binding to catalytic domain of sGC; details: for sGCcat (SPR) binding norm. resp. (RU): Biacore T200, 25 °C; for binding to sGCcat (in words): discussion of Table 1
T1 construct: a smaller construct of the catalytic domain (sGCcat)
T1 sequence (Q02108 481-608 limits assumed): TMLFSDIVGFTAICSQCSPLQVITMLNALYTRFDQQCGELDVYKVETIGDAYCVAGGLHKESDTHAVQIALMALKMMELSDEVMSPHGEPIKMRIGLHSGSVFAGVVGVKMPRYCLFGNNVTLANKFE
T1 sequence (Q02153 421-554 limits assumed): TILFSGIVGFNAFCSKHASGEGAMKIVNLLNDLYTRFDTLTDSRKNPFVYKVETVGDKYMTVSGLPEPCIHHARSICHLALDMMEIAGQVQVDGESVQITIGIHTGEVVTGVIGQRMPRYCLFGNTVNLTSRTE
Description: We have previously described a surface plasmon resonance-based assay for the detection of binding of small molecules to full-length sGC and a smaller construct of the catalytic domain (sGCcat).[24] This assay was used to measure the binding of the compounds to sGCcat.[24] […] The position of the hydroxyl group can be changed whilst retaining binding strength and activity.
Surface plasmon resonance (SPR) experiments were performed with a Biacore T200 instrument at 25 °C. Data processing and analysis were performed using BIAevaluation software and Scrubber2. All sensorgrams were double referenced by subtracting the response in a reference flowcell and a blank sample. Materials and methods used were the same as previously published.[24]

purified bovine lung sGC = molecular target: T2, purified bovine lung sGC (Bos taurus, UniProt P16068+P19687); experiment: Soluble guanylate cyclase activity assay (cGMP radioimmunoassay); type: biochemical; details: for inhibition of sGC enzyme activity (in words): discussion of Table 1
T2 construct: screened at 100 μM against purified bovine lung sGC; purchased Enzo lifesciences ALX-202-039-C005; host or cells: bovine lung
T2 sequence (P19687 1-691): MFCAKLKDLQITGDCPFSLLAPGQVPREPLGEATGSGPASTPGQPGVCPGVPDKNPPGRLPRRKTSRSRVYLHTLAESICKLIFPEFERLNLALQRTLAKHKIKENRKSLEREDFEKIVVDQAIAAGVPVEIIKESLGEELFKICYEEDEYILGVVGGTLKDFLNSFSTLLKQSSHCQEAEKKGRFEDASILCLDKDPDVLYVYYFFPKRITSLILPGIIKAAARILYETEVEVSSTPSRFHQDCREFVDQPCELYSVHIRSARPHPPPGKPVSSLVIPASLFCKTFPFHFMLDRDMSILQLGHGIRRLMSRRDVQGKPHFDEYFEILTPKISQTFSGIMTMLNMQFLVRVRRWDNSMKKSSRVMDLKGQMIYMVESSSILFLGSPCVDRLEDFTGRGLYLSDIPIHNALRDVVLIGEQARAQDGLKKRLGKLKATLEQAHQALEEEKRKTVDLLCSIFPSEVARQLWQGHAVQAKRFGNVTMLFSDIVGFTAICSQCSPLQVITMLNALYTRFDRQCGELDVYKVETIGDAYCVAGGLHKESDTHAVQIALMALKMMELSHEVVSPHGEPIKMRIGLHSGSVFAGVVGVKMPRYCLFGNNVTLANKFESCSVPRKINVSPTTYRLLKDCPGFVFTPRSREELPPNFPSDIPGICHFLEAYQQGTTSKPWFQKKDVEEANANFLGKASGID
T2 sequence (P16068 1-619): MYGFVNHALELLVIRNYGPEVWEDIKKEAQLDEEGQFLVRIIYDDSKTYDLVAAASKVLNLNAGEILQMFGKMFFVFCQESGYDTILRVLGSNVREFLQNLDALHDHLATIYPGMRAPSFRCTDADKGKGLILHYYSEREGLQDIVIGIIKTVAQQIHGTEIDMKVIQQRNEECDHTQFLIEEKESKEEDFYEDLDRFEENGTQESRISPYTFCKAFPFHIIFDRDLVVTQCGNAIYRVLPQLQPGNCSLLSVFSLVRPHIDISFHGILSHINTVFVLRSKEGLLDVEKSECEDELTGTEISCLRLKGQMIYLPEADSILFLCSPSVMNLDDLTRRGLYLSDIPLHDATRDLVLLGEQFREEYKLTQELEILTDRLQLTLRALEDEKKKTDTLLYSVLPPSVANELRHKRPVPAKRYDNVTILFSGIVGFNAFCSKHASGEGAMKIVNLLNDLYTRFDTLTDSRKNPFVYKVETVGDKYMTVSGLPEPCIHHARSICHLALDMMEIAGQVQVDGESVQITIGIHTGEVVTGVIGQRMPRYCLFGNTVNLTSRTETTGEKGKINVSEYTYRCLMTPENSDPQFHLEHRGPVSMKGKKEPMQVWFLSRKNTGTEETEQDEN
Description: Virtual screening was performed by similarity searches using MACCS fingerprints at 85% and 75% Tanimoto of commercial libraries and the selected compounds were screened at 100 μM against purified bovine lung sGC using diethylamine NONOate (30 nM) as the NO donor. Enzyme activity was determined by measuring cGMP production using a standard cGMP [^3H] radioimmunoassay.[21,22]
[…] Compounds were added at 100 μM prior to adding the NO donor DEA/NO (30 nM) or clamped NO concentrations. cGMP generation was allowed to proceed for two minutes, after which aliquots were withdrawn and inactivated by boiling in 50 mM Tris, 4 mM EDTA buffer. cGMP formation was measured by a standard radioimmunoassay.

[1] = virtual screening hits, 100 μM compound, diethylamine NONOate 30 nM as NO donor, read-out: % inhibition of sGC activity at 100 μM compound
[2] = read-out: % inhibition of sGC activity at 100 μM compound

| Compound | sGCcat (SPR) binding norm. resp. (RU) (sGCcat) | binding to sGCcat (in words) (sGCcat) | inhibition of sGC enzyme activity (in words) (purified bovine lung sGC) | further results |
| --- | --- | --- | --- | --- |
| 6,7-Bis((3-hydroxyphenyl)amino)-N-methyl-2-naphthamide [Compound 28] | 9.6 ± 0.3 | higher binding |  |  |
| Clc1cccc(Nc2ncnc3ccccc23)c1Cl [Compound 5] |  |  |  | inhibition at 100 µM (purified bovine lung sGC; [1]): 51% |
| N#Cc1cc(Nc2cccc(Cl)c2)c(Nc2cccc(Cl)c2)cc1C#N [Compound 6] |  |  |  | inhibition at 100 µM (purified bovine lung sGC; [1]): 51% |
| Fc1cccc(Nc2nc3nonc3nc2Nc2cccc(F)c2)c1 [Compound 7] |  |  |  | inhibition at 100 µM (purified bovine lung sGC; [1]): 90% |
| O=[N+]([O-])c1ccccc1Nc1nc2nonc2nc1Nc1ccccc1[N+](=O)[O-] [Compound 8] |  |  |  | inhibition at 100 µM (purified bovine lung sGC; [2]): 90% |
| CC(=O)c1ccc(Nc2nc3cc([N+](=O)[O-])c([N+](=O)[O-])cc3nc2Nc2cccc(C(C)=O)c2)cc1 [Compound 9] |  |  |  | inhibition at 100 µM (purified bovine lung sGC; [2]): 73% |
| O=[N+]([O-])c1ccc2nc(Nc3cccc(O)c3)c(Nc3cccc(O)c3)nc2c1 [Compound 14, 3,3′-((6-Nitroquinoxaline-2,3-diyl)bis(azanediyl))diphenol] | 11.6 ± 0.8 | higher binding |  | inhibition at 100 µM (purified bovine lung sGC; synthesised analogues, 100 μM, read-out: sGC activity% inhibition at 100 μM): 41.4% |
| COc1ccc(Nc2nc3ccc([N+](=O)[O-])cc3nc2Nc2ccc(OC)cc2)cc1 [Compound 15, N2,N3-Bis(4-methoxyphenyl)-6-nitroquinoxaline-2,3-diamine] | 1.0 ± 0.3 | reduced its binding strength | biochemically inactive |  |
| O=[N+]([O-])c1ccc2nc(Nc3ccccc3)c(Nc3ccccc3)nc2c1 [Compound 16, 6-Nitro-N2,N3-diphenylquinoxaline-2,3-diamine] | 2.6 ± 0.2 |  |  |  |
| CC(=O)Nc1ccc(Nc2nc3ccc([N+](=O)[O-])cc3nc2Nc2ccc(NC(C)=O)cc2)cc1 [Compound 17, N,N′-(((6-Nitroquinoxaline-2,3-diyl)bis(azanediyl))bis(4,1-phenylene))diacetamide] | 0.8 ± 0.3 | reduced its binding strength | biochemically inactive |  |
| CC(=O)Nc1cccc(Nc2nc3ccc([N+](=O)[O-])cc3nc2Nc2cccc(NC(C)=O)c2)c1 [Compound 18, N,N′-(((6-Nitroquinoxaline-2,3-diyl)bis(azanediyl))bis(3,1-phenylene))diacetamide] | 3.0 ± 1.0 | reduced its binding strength | biochemically inactive |  |
| O=[N+]([O-])c1ccc2nc(Nc3ccc(F)cc3)c(Nc3ccc(F)cc3)nc2c1 [Compound 19, N2,N3-Bis(4-fluorophenyl)-6-nitroquinoxaline-2,3-diamine] | 1.9 ± 1.8 | reduced its binding strength | biochemically inactive |  |
| Oc1ccc(Nc2nc3ccccc3nc2Nc2ccc(O)cc2)cc1 [Compound 20, 4,4′-(Quinoxaline-2,3-diylbis(azanediyl))diphenol] | 12.4 ± 0.1 | higher binding; also recorded: only a small decrease in binding | no significant inhibition |  |
| CNC(=O)c1ccc2nc(Nc3ccc(O)cc3)c(Nc3ccc(O)cc3)nc2c1 [Compound 27, 2,3-Bis((4-hydroxyphenyl)amino)-N-methylquinoxaline-6-carboxamide] | 1.1 ± 0.3 |  |  |  |
